These results are taken from patent US12054747B2, “Method of differentiating primordial germ cell into primordial follicle in vitro” (KYUSHU UNIVERSITY, NATIONAL UNIVERSITY CORPORATION, priority 2018, dated 2024).

Experiment [1] has as its system oocytes in gonad of a 12.5 day-old fetus after fertilization. As to the kind of experiment: In vitro culture of gonad in presence of PI3K inhibitor; oocyte size counted by Stella-CFP fluorescence. It counts as cell-based, mouse. To be noted: 25 μM Ly from 6th to 16th day of culture; observed on 16th day; FIG. 6B. The procedure:
First, a Transwell-COL membrane (3.0 μm pore size, 24 mm diameter) (manufactured by Corning Inc.) was set in each well of a 6-well plate, and the gonad collected in (1) were placed on a membrane. Then, 1.3 mL of medium was added to each well and culture was performed for 16 days. Also, the medium was cultured in αM2 for 4 days and then cultured in S10. In addition, the PI3K inhibitor LY294002 (hereinafter, may be abbreviated as “Ly”) (manufactured by Cell Signaling Technology, model number: 9901) was added to the medium such that a final concentration is 25 μM, during the period from the 6th day to the 16th day from the start of the culture. In addition, ICI 182,780 (7α,17β-[9-[(4,4,5,5,5-pentafluoropentyl)sulfinyl]nonyl]estra-1,3,5(10)-triene-3,17-diol) (manufactured by Tocris Bioscience) which is an estrogen receptor antagonist was added during the period from 5th to 9th day after the start of culture such that a final concentration in the medium is 500 nM. About half of the medium was replaced with a new medium every other day. In addition, as a control, those cultured in the same manner without adding Ly (cultured under a steady condition) were also prepared. The gonad on the 16th day from the start of culture were observed under a fluorescent stereomicroscope (manufactured by Olympus Corporation, model number: SZX16). In FIG. 6A, “Control” is a gonad cultured under a steady condition (in the absence of Ly), and “Ly” is a gonad cultured in the presence of the PI3K inhibitor LY294002. A scale bar represents 50 μm. Further, FIG. 6B is a graph in which the number of oocytes was counted using the expression of Stella-CFP as an index in FIG. 6A, and proportions of the oocytes smaller than 20 μm, 20 μm or larger and 50 μm or smaller, and larger than 50 μm were calculated.

For experiment [2], the system named is transcription factor Foxo3a localization in oocytes. As to the kind of experiment: In vitro culture of gonad in presence of PI3K inhibitor with or without pressurization; Foxo3a immunostaining. In kind it is cell-based, mouse. To be noted: 25 μM Ly, oocytes of 20 μm or smaller, 16th day; for proportion of oocytes in which Foxo3a was localized in the nucleus: FIG. 8A; for proportion of oocytes in which Foxo3a was localized in the cytosol: FIG. 8B. Here is the method: Specifically, first, a Transwell-COL membrane (3.0 μm pore size, 24 mm diameter) (manufactured by Corning Inc.) was set in each well of a 6-well plate, and the gonad collected in (1) were placed on a membrane. Then, 1.3 mL of medium was added to each well and culture was performed for 16 days. For artificial pressurization, AGP-3001S (registered trademark) manufactured by STREX was used to apply a hydrostatic pressure of 33.33 kPa, during the period from the 6th day to the 16th day from the start of the culture. In addition, Ly was added to the medium such that a final concentration is 25 μM, during the period from the 6th day to the 16th day from the start of the culture. Also, the medium was cultured in αM2 for 4 days and then cultured in S10. In addition, ICI 182,780 (7α,17β-[9-[(4,4,5,5,5-pentafluoropentyl)sulfinyl]nonyl]estra-1,3,5(10)-triene-3,17-diol) (manufactured by Tocris Bioscience) which is an estrogen receptor antagonist was added during the period from 5th to 9th day after the start of culture such that a final concentration in the medium is 500 nM. About half of the medium was replaced with anew medium every other day. As a control, those cultured in the same manner in the presence of Ly without pressurization were also prepared. In the gonad cultured in (2), a tissue section of the gonad was prepared by using the same method as in (1) of Reference Example 1. Then, the tissue section of the gonad obtained in (3) was immunohistochemically stained using the same method as in (4) of Example 1. […] In FIG. 7, “No Press (0 kPa)” is a gonad cultured in the presence of Ly without pressurization. “Press (33.3 kPa)” is a gonad cultured under the artificially pressurized condition and in the presence of Ly. a and e are staining images for CFP expressed under the control of the expression of the germ cell marker Stella. b and f are immunostaining images using an antibody against a transcription factor Foxo3α. c and g are immunostaining images using an antibody against the MVH of the germ cell marker. d is an image in which a nuclear-staining image using DAPI is superimposed on the staining images in a to c. h is an image in which a nuclear-staining image using DAPI is superimposed on the staining images in e to g. A scale bar represents 10 μm. Further, FIG. 8A is a graph obtained by calculating a proportion of oocytes in which the transcription factor Foxo3a is localized in the nucleus, from the immunostaining image using the antibody against the transcription factor Foxo3a in FIG. 7. FIG. 8B is a graph obtained by calculating a proportion of oocytes in which the transcription factor Foxo3a is localized in a cytosol, from the immunostaining image using the antibody against the transcription factor Foxo3a in FIG. 7.

Setting [3] is: artificially pressurized condition (33.33 kPa).

Turning to `O=c1cc(N2CCOCC2)oc2c(-c3ccccc3)cccc12` [Ly, LY294002], in experiment [1], the “proportion of oocytes having a size larger than 50 μm” value is “about 23%”; the “proportion of oocytes having a size smaller than 20 μm in total oocytes” value was “about 29%”; the “proportion of oocytes with a size of 20 μm or larger and 50 μm or smaller” value is recorded as “about 48%”. Moreover, in experiment [2] (setting [3]), the “proportion of oocytes in which Foxo3a was localized in the nucleus” value was “about 82%” and the “proportion of oocytes in which Foxo3a was localized in the cytosol” value was “about 18%”. Besides, in experiment [2] (without pressurization (0 kPa)), the “proportion of oocytes in which Foxo3a was localized in the nucleus” value is “about 52%” and the “proportion of oocytes in which Foxo3a was localized in the cytosol” value is recorded as “about 48%”.
